Assay results taken from publication PMC6374824 (International Journal of Endocrinology, 2019).
Entries after “also recorded” stand apart in the source; their conditions may differ. Blank lines part the entries; values can stand above or below the substance they belong to.

Columns and labels:
islet amyloid = conditions: ref [27]; cited from earlier work
Source text: In the present study, a pentapeptide inhibitor Phe-Leu-Pro-Asn-Phe (FLPNF) that contains only five amino acids has been designed. […] Even so, FLPNF was optimally designed and consisted of ...

hIAPP [1] = molecular target: T1, hIAPP (Homo sapiens, UniProt P10997); conditions: ref [25], cited from earlier work; for inhibition of hIAPP aggregation in vitro: [26]
T1 construct: hormone secreted by β-cells consisting of 37 amino acid residues; purchased ChinaPeptide Co. Ltd. (Shanghai, China); host or cells: chemical synthesis
T1 sequence (P10997 34-70 limits assumed): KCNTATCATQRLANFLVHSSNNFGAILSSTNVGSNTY
Source text: In the present study, a pentapeptide inhibitor Phe-Leu-Pro-Asn-Phe (FLPNF) that contains only five amino acids has been designed. […] After that, the ...

fibrils of hIAPP = conditions: ref [25]; cited from earlier work
Source text: In the early research, SNNFGA and GAILSS could not completely prevent the formation of fibr ...

hIAPP [2] = molecular target: T1, hIAPP; assay: Thioflavin T fluorescence assay, concentration dependence; assay type: biochemical; conditions: PBS, 24 hours, 37°C
Description: The stock solutions were aliquoted and stored at -80°C according to the instructions.
The plates were incubated at 37°C for 0, 12, 24, and 48 hours. Finally, the fluorescence image was detected by an XDY-100 fluorescence microscope (Zhongheng, Shanghai, China). Subsequently, the fluorescence intensity values of each group were measured by a Fluoroskan Ascent FL luminescence meter (Thermo Scientific, USA) using an excitation λ of 435 nm and an emission λ of 485 nm. At each time course, the fluorescence intensity values of the control group were set as 1, while the values of test groups relative to the control group were set as fluorescence intensity (A.U.) and used for statistical analysis. Each experiment was repeated thrice.
The fluorescence images and the fluorescence intensity values of each group were collected after incubating for 24 hours. Each experiment was repeated thrice.

hIAPP [3] = molecular target: T1, hIAPP; assay: Thioflavin T fluorescence assay, time course; assay type: biochemical; conditions: for ThT fluorescence intensity compared to hIAPP group, significance: PBS pH 7.4, 37°C, unpaired t-test
INS-1 cells = assay: Cell proliferation assay (MTS), hIAPP cytotoxicity in INS-1 cells
Description: The INS-1 cells at a density of 2 × 10^4 were plated in a 96-well plate. […] The untreated control cells received equal fresh medium. The medium of each group contained 0.2 μL DMSO, equal to 0.2% DMSO. Consequently, 10 μL MTS solution was added to each well and incubated for additional 2 hours. The optical density (OD) values were measured at 490 nm using a PowerWave XS2 microplate spectrophotometer (Thermo Scientific, USA). Each experiment was repeated thrice.

hIAPP amyloid fibrils = assay: Transmission electron microscopy of hIAPP amyloid fibrils; assay type: biochemical, human; conditions: PBS, 24 hours, 37°C, 2% phosphotungstic acid stain; for hIAPP fibril formation by TEM, with added peptide: 100 μM peptide + 10 μM hIAPP
Description: TEM was used to directly observe the relative density and morphological changes of hIAPP amyloid fibrils. […] A volume of 10 μL of each sample was placed on mesh copper grids (Servicebio, Wuhan, China) and was covered by a carbon-stabilized formvar film. After 3 min, excess fluid was removed, and the grids were stained with 2% phosphotungstic acid for 3 min. Samples were analyzed using a HT7700 transmission electron microscope (Hitachi, Japan).

hIAPP [4] = molecular target: T1, hIAPP; assay: Biolayer interferometry, FLPNF immobilized; assay type: binding; conditions: hIAPP 400 μM (method) / 100 μM (Figure 5 legend)
Description: Experiments were performed by Shuangtian Biotech Co. Ltd. FLPNF were reconstituted in PBS (pH = 7.4) and immobilized on aminopropylsilane (APS) biosensors. […] This was followed by a 600 sec dissociation phase in dissociation buffer (50% DMSO+0.05% PBST) in PBS. A response unit represented the bonding height on the biosensor. The association and dissociation curves were analyzed and constructed by Octet K2 biolayer interferometry.

Substance: D-ANFLVH
- reduction of amyloid aggregates in vivo (islet amyloid): could reduce the islet amyloid accumulation in vivo; also recorded: can reduce the formation of amyloid aggregates in vivo

Substance: GAILSS
- inhibition of hIAPP aggregation in vitro (hIAPP [1]): can inhibit hIAPP aggregation in vitro
- prevention of hIAPP fibril formation on TEM images (fibrils of hIAPP): could not completely prevent the formation of fibrils of hIAPP

- ThT fluorescence signal compared to 0 μM group (hIAPP [2]; any concentration of NFGAIL (20-400 μM) + 10 μM hIAPP): no reduction
- ThT fluorescence intensity compared to hIAPP group (luminescence meter) (hIAPP [3]; 100 μM NFGAIL + 10 μM hIAPP, PBS pH 7.4, 20 μM ThT, 37°C, ex 435 nm, em 485 nm, repeated thrice): did not decrease
Substance: NFGAIL [reference compound]
- effect on hIAPP fibril formation (hIAPP [1]; residues 22–27 of hIAPP, negative control): could enhance hIAPP fibril formation
- reduction of cytotoxic effects of hIAPP in INS-1 cells (INS-1 cells; 100 μM NFGAIL + 10 μM hIAPP, 24 hours, MTS, OD 490 nm): no effect of reducing the cytotoxic effects of hIAPP
- hIAPP fibril formation by TEM, with added peptide (hIAPP amyloid fibrils): did not reduce or even increase the amount of the fibril formation; also recorded: No reduction of the fibrils

Substance: NFGAILPP
- inhibition of hIAPP aggregation in vitro (hIAPP [1]): can inhibit hIAPP aggregation in vitro

Substance: NYGAILSS
- inhibition of hIAPP aggregation in vitro (hIAPP [1]): can inhibit hIAPP aggregation in vitro

- ThT green fluorescence signal with increasing concentrations (fluorescence microscope) (hIAPP [2]; 0, 20, 50, 100, 200, 400 μM FLPNF + 10 μM hIAPP): gradually decreased
- ThT fluorescence intensity with increasing concentrations (luminescence meter) (hIAPP [2]; 0, 20, 50, 100, 200, 400 μM FLPNF + 10 μM hIAPP, repeated thrice): gradually reduced
- ThT fluorescence intensity compared to 0 μM group (hIAPP [2]; 100, 200 and 400 μM FLPNF + 10 μM hIAPP, P < 0.05, unpaired t-test, repeated thrice): significantly lowered
- association response (response units) (hIAPP [4]; FLPNF immobilized on APS biosensor, PBS pH 7.4, association 300 sec, Octet K2): approximately 0.02 nm
- interaction between FLPNF and hIAPP (hIAPP [4]; biolayer interferometry, immobilized FLPNF): strong interaction
- ThT fluorescence intensity compared to hIAPP group, significance (hIAPP [3]; 100 μM FLPNF + 10 μM hIAPP, 24 h, P < 0.05, ex 435 nm, em 485 nm, repeated thrice): significantly lowered
- ThT fluorescence intensity compared to hIAPP group, significance (hIAPP [3]; 100 μM FLPNF + 10 μM hIAPP, 48 h, P < 0.01, ex 435 nm, em 485 nm, repeated thrice): significantly lowered
- inhibitory effect at 48 hours (hIAPP [3]; in vitro, 48 hours): still had an inhibitory effect
- inhibition of amyloid formation (hIAPP [3]; tenfold molar excess to hIAPP, PBS, 24 hours): partially inhibited amyloid formation
Substance: Phe-Leu-Pro-Asn-Phe [FLPNF]
- dissociation (hIAPP [4]; dissociation phase 600 sec, 50% DMSO+0.05% PBST in PBS, Octet K2): tardily reversible; also recorded: slowly dropped to 0
- ThT fluorescence intensity compared to hIAPP alone (luminescence meter) (hIAPP [3]; 100 μM FLPNF + 10 μM hIAPP, PBS pH 7.4, 20 μM ThT, 37°C, 12, 24 and 48 hours, ex 435 nm, em 485 nm, repeated thrice): decreased the fluorescence intensity compared to hIAPP alone
- ThT fluorescence signal (fluorescence microscope) (hIAPP [3]; 100 μM peptide + 10 μM hIAPP, PBS pH 7.4, 20 μM ThT, 37°C, 24 and 48 hours): strong reduction of the fluorescence signal
- inhibition of hIAPP amyloid aggregation (hIAPP [3]; 10 : 1 molar ratio FLPNF to hIAPP, in vitro, ThT): strongly inhibited the amyloid aggregation of hIAPP
- INS-1 cell viability compared to hIAPP group (INS-1 cells; 100 μM FLPNF + 10 μM hIAPP, 24 hours, OD 490 nm, P < 0.05, unpaired t-test, repeated thrice): significant improvement in cell viability
- INS-1 cell viability, FLPNF alone (INS-1 cells; FLPNF alone, no hIAPP, MTS): no direct effect on the viability of INS-1 cells; also recorded: no direct effect on cell viability
- INS-1 cell viability compared to control group, with FLPNF + hIAPP (INS-1 cells; hIAPP with FLPNF at 1 : 10 ratio, 24 hours, MTS): still lower
- hIAPP fibril formation by TEM, with added peptide (hIAPP amyloid fibrils): reduced the amounts of fibril formation; also recorded: not completely prevented but were reduced in density; also recorded: less numerous but appeared to be more thickened

Substance: SNNFGA
- inhibition of hIAPP aggregation in vitro (hIAPP [1]): can inhibit hIAPP aggregation in vitro
- prevention of hIAPP fibril formation on TEM images (fibrils of hIAPP): could not completely prevent the formation of fibrils of hIAPP

Substance: human islet amyloid polypeptide (KCNTATCATQRLANFLVHSSNNFGAILSSTNVGSNTY; Islet amyloid polypeptide; UniProt P10997 34-70, looked up) [hIAPP, hormone secreted by β-cells consisting of 37 amino acid residues]
- INS-1 cell viability compared to control group (INS-1 cells; 10 μM hIAPP alone, 24 hours, OD 490 nm, P < 0.001, unpaired t-test, repeated thrice): significantly decreased the cell viability
- fibril morphology of hIAPP alone by TEM (hIAPP amyloid fibrils; 10 μM hIAPP alone): typical dense fibrils; also recorded: typical morphology and formation of dense aggregates
